Data taken from PubChem BioAssay AID200 (DTP/NCI, 2004).
Values joined by “and” are separate entries in the source; they are usually repeats but may differ in a detail not shown here. Identical values can stand only once. Toxic doses and inconclusive results are not listed. Where a SMILES comes first, the peptide text is derived from it. [ ]: non-standard residue; d: D form. The star is where a group is joined. Cbz = O=C(OCc1ccccc1)*; Nva = CCC[CH](N)C(=O)O

Test system: B6C3F1 mice, B16 melanoma ip, median survival T/C
Assay: NCI In Vivo Anticancer Drug Screen. Data for tumor model B16 Melanoma (intraperitoneal) in B6C3F1 mice
Details: endpoint: median survival time, higher = longer survival
Outline: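 Transplantable tumor in mice; treated vs vehicle control groups; survival or tumor size measured; value = T/C ratio.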

[1] = dose: 12.5 mg/kg/injection, schedule: Q01DX009 (ip), vehicle: saline
[2] = dose: 12.5 mg/kg/injection, schedule: Q01DX009 (ip), vehicle: saline with Tween-80
[3] = dose: 25.0 mg/kg/injection, schedule: Q01DX009 (ip), vehicle: saline with Tween-80
[4] = dose: 30.0 mg/kg/injection, schedule: Q01DX009 (ip), vehicle: saline with Tween-80
[5] = dose: 50.0 mg/kg/injection, schedule: Q01DX009 (ip), vehicle: saline with Tween-80
[6] = dose: 100.0 mg/kg/injection, schedule: Q01DX009 (ip), vehicle: saline with Tween-80
[7] = dose: 200.0 mg/kg/injection, schedule: Q01DX009 (ip), vehicle: saline with Tween-80
[8] = dose: 3.12 mg/kg/injection, schedule: Q01DX009 (ip), vehicle: saline with Tween-80
[9] = dose: 6.25 mg/kg/injection, schedule: Q01DX009 (ip), vehicle: saline with Tween-80
[10] = dose: 100.0 mg/kg/injection, schedule: Q01DX009 (ip), vehicle: Klucel (hydroxypropylcellulose) (HPC)
[11] = dose: 200.0 mg/kg/injection, schedule: Q01DX009 (ip), vehicle: Klucel (hydroxypropylcellulose) (HPC)

CC1CN1P1(N2CC2C)=NP(N2CC2C)(N2CC2C)=NP(N2CC2C)(N2CC2C)=N1 (configuration not stated)
T/C (dose: 1.0 mg/kg/injection, schedule: Q01DX009 (ip), vehicle: saline): 98 % of control
T/C (dose: 1.0 mg/kg/injection, schedule: Q02DX009 (ip), vehicle: saline): 96 % of control
T/C (dose: 2.0 mg/kg/injection, schedule: Q01DX009 (ip), vehicle: saline): 100 % of control
T/C (dose: 2.0 mg/kg/injection, schedule: Q02DX009 (ip), vehicle: saline): 102 % of control
T/C (dose: 4.0 mg/kg/injection, schedule: Q01DX009 (ip), vehicle: saline): 106 % of control
T/C (dose: 4.0 mg/kg/injection, schedule: Q02DX009 (ip), vehicle: saline): 101 % of control
T/C (dose: 8.0 mg/kg/injection, schedule: Q01DX009 (ip), vehicle: saline): 115 % of control
T/C (dose: 8.0 mg/kg/injection, schedule: Q02DX009 (ip), vehicle: saline): 105 % of control
T/C (dose: 16.0 mg/kg/injection, schedule: Q01DX009 (ip), vehicle: saline): 117 % of control
T/C (dose: 32.0 mg/kg/injection, schedule: Q02DX009 (ip), vehicle: saline): 122 % of control
T/C (dose: 64.0 mg/kg/injection, schedule: Q01DX009 (ip), vehicle: saline): 118 % of control
T/C (dose: 64.0 mg/kg/injection, schedule: Q02DX009 (ip), vehicle: saline): 94 % of control

CCOC(=O)c1ccc(NN=NCCF)cc1
T/C (dose: 3.0 mg/kg/injection, schedule: Q01DX009 (ip), vehicle: distilled water + Tween-80): 123 % of control and 102 % of control
T/C (dose: 3.12 mg/kg/injection, schedule: Q01DX009 (ip), vehicle: distilled water + Tween-80): 123 % of control
T/C (dose: 6.0 mg/kg/injection, schedule: Q01DX009 (ip), vehicle: distilled water + Tween-80): 112 % of control and 98 % of control
T/C (dose: 12.0 mg/kg/injection, schedule: Q01DX009 (ip), vehicle: distilled water + Tween-80): 87 % of control and 103 % of control
T/C (dose: 12.5 mg/kg/injection, schedule: Q01DX009 (ip), vehicle: distilled water + Tween-80): 155 % of control
T/C (dose: 24.0 mg/kg/injection, schedule: Q01DX009 (ip), vehicle: distilled water + Tween-80): 108 % of control and 101 % of control
T/C (dose: 25.0 mg/kg/injection, schedule: Q01DX009 (ip), vehicle: distilled water + Tween-80): 198 % of control
T/C (dose: 48.0 mg/kg/injection, schedule: Q01DX009 (ip), vehicle: distilled water + Tween-80): 96 % of control and 102 % of control

CC1=C(O)C(=O)[C@@H]2O[C@@H]2C1=O
T/C (dose: 0.78 mg/kg/injection, schedule: Q01DX009 (ip), vehicle: saline): 87 % of control and 92 % of control
T/C (dose: 1.56 mg/kg/injection, schedule: Q01DX009 (ip), vehicle: saline): 91 % of control and 98 % of control
T/C (dose: 3.12 mg/kg/injection, schedule: Q01DX009 (ip), vehicle: saline): 103 % of control
T/C (dose: 3.13 mg/kg/injection, schedule: Q01DX009 (ip), vehicle: saline): 107 % of control
T/C (dose: 6.25 mg/kg/injection, schedule: Q01DX009 (ip), vehicle: saline): 112 % of control and 94 % of control
T/C [1]: 108 % of control and 106 % of control

COC1=C(C)C(=O)C2=C(C1=O)C(CO)N1C(C#N)C3CC4C(C1C2N1CCOC41)N3C (configuration not stated)
T/C (dose: 0.06 mg/kg/injection, schedule: Q01DX009 (ip), vehicle: acid diluted with saline): 105 % of control
T/C (dose: 0.12 mg/kg/injection, schedule: Q01DX009 (ip), vehicle: acid diluted with saline): 98 % of control
T/C (dose: 0.12 mg/kg/injection, schedule: Q01DX009 (ip), vehicle: saline + alcohol): 102 % of control
T/C (dose: 0.25 mg/kg/injection, schedule: Q01DX009 (ip), vehicle: acid diluted with saline): 111 % of control
T/C (dose: 0.25 mg/kg/injection, schedule: Q01DX009 (ip), vehicle: saline + alcohol): 109 % of control and 104 % of control
T/C (dose: 0.5 mg/kg/injection, schedule: Q01DX009 (ip), vehicle: acid diluted with saline): 116 % of control and 103 % of control
T/C (dose: 0.5 mg/kg/injection, schedule: Q01DX009 (ip), vehicle: saline + alcohol): 112 % of control and 113 % of control and 118 % of control
T/C (dose: 1.0 mg/kg/injection, schedule: Q01DX009 (ip), vehicle: acid diluted with saline): 108 % of control and 113 % of control
T/C (dose: 1.0 mg/kg/injection, schedule: Q01DX009 (ip), vehicle: saline + alcohol): 109 % of control and 121 % of control

S=c1sc2ccccc2n1CN1CCOCC1
T/C [2]: 99 % of control and 102 % of control
T/C (dose: 18.0 mg/kg/injection, schedule: Q01DX009 (ip), vehicle: saline with Tween-80): 89 % of control
T/C [3]: 109 % of control and 112 % of control
T/C [4]: 91 % of control
T/C [5]: 113 % of control and 100 % of control
T/C (dose: 83.33 mg/kg/injection, schedule: Q01DX009 (ip), vehicle: saline with Tween-80): 100 % of control
T/C [6]: 102 % of control and 105 % of control
T/C (dose: 138.88 mg/kg/injection, schedule: Q01DX009 (ip), vehicle: saline with Tween-80): 106 % of control
T/C [7]: 95 % of control and 101 % of control

O=Cc1ccc([N+](=O)[O-])s1
T/C [8]: 98 % of control
T/C [9]: 105 % of control
T/C [2]: 101 % of control
T/C [3]: 101 % of control
T/C [5]: 88 % of control

Cc1oc2c(C)c3oc(=O)cc(C)c3cc2c1CCl
T/C [2]: 91 % of control and 97 % of control
T/C [3]: 87 % of control and 88 % of control (2×)
T/C [5]: 102 % of control

CN(C)N=Nc1cccc2c1N(C)c1ccc(F)cc1S2
T/C (dose: 6.25 mg/kg/injection, schedule: Q01DX009 (ip), vehicle: other): 103 % of control
T/C (dose: 12.5 mg/kg/injection, schedule: Q01DX009 (ip), vehicle: other): 100 % of control
T/C (dose: 25.0 mg/kg/injection, schedule: Q01DX009 (ip), vehicle: other): 108 % of control
T/C (dose: 50.0 mg/kg/injection, schedule: Q01DX009 (ip), vehicle: other): 95 % of control
T/C (dose: 100.0 mg/kg/injection, schedule: Q01DX009 (ip), vehicle: other): 102 % of control

CCCCCC[Se][Se]CCCCCC
T/C (dose: 1.56 mg/kg/injection, schedule: Q01DX009 (ip), vehicle: Klucel (hydroxypropylcellulose) (HPC)): 97 % of control
T/C (dose: 3.12 mg/kg/injection, schedule: Q01DX009 (ip), vehicle: Klucel (hydroxypropylcellulose) (HPC)): 106 % of control
T/C (dose: 6.25 mg/kg/injection, schedule: Q01DX009 (ip), vehicle: Klucel (hydroxypropylcellulose) (HPC)): 95 % of control

COC(=O)C(Cc1ccc(O)cc1)NC(=O)C(Cc1ccccc1)NC(C)=O (stereo not drawn) (Ac-Phe-Tyr-OMe; configuration not given here)
T/C (dose: 25.0 mg/kg/injection, schedule: Q01DX009 (ip), vehicle: Klucel (hydroxypropylcellulose) (HPC)): 92 % of control
T/C (dose: 50.0 mg/kg/injection, schedule: Q01DX009 (ip), vehicle: Klucel (hydroxypropylcellulose) (HPC)): 92 % of control
T/C [10]: 92 % of control
T/C [11]: 86 % of control

CCc1nc(N)nc(N)c1-c1ccc(Cl)c([N+](=O)[O-])c1
T/C (dose: 1.56 mg/kg/injection, schedule: Q01DX009 (ip), vehicle: saline with Tween-80): 106 % of control
T/C [8]: 105 % of control
T/C (dose: 3.25 mg/kg/injection, schedule: Q01DX009 (ip), vehicle: saline with Tween-80): 100 % of control
T/C [9]: 111 % of control
T/C (dose: 7.5 mg/kg/injection, schedule: Q01DX009 (ip), vehicle: saline with Tween-80): 101 % of control
T/C (dose: 15.0 mg/kg/injection, schedule: Q01DX009 (ip), vehicle: saline with Tween-80): 103 % of control
T/C [4]: 104 % of control
T/C (dose: 60.0 mg/kg/injection, schedule: Q01DX009 (ip), vehicle: saline with Tween-80): 114 % of control

CC1(C)OC1CS(=O)c1ccccc1 (configuration not stated)
T/C [2]: 96 % of control
T/C [1]: 93 % of control
T/C [3]: 99 % of control
T/C (dose: 25.0 mg/kg/injection, schedule: Q01DX009 (ip), vehicle: saline): 98 % of control
T/C [5]: 102 % of control
T/C (dose: 50.0 mg/kg/injection, schedule: Q01DX009 (ip), vehicle: saline): 96 % of control
T/C [6]: 95 % of control
T/C (dose: 100.0 mg/kg/injection, schedule: Q01DX009 (ip), vehicle: saline): 98 % of control
T/C [7]: 90 % of control
T/C (dose: 200.0 mg/kg/injection, schedule: Q01DX009 (ip), vehicle: saline): 98 % of control
T/C (dose: 400.0 mg/kg/injection, schedule: Q01DX009 (ip), vehicle: saline with Tween-80): 89 % of control
T/C (dose: 400.0 mg/kg/injection, schedule: Q01DX009 (ip), vehicle: saline): 93 % of control

CCCC(NC(=O)OCc1ccccc1)C(=O)NC(CO)C(=O)O (configuration not stated) (Cbz-[Nva]-Ser-OH; configuration not given here)
T/C [10]: 102 % of control
T/C [11]: 100 % of control
T/C (dose: 400.0 mg/kg/injection, schedule: Q01DX009 (ip), vehicle: Klucel (hydroxypropylcellulose) (HPC)): 103 % of control
